Laboratory results reported in patent publication US9730939B2, “Heterocyclylamines as PI3K inhibitors” (Incyte Corporation, priority 2011, dated 2017).

Molecular target: PI3Kδ (p110δ/p85α) (Homo sapiens (Human), UniProt O00329)
Test: Example A3 PI3Kδ scintillation proximity assay
Type: biochemical
Conditions: comparison of compounds 355-358; assay not given
Procedure: PI3Kδ Scintillation Proximity Assay
[γ-^33P]ATP (10 mCi/mL) was purchased from PerkinElmer (Waltham, Mass.). […] PI3Kδ (p110δ/p85α) was purchased from Millipore (Bedford, Mass.). ATP, MgCl2, DTT, EDTA, MOPS and CHAPS were purchased from SigmaAldrich (St. Louis, Mo.). Wheat Germ Agglutinin (WGA) YSi SPA Scintillation Beads was purchased from GE healthcare life sciences (Piscataway, N.J.).
The final concentration of DMSO in the assay was 0.5%. The PI3K assays were carried out at room temperature in 20 mM MOPS, pH 6.7, 10 mM MgCl2, 5 mM DTT and CHAPS 0.03%. Reactions were initiated by the addition of ATP, the final reaction mixture consisted of 20 μM PIP2, 20 μM ATP, 0.2 μCi [γ-^33P]

Sequence of PI3Kδ (p110δ/p85α) (O00329 whole entry): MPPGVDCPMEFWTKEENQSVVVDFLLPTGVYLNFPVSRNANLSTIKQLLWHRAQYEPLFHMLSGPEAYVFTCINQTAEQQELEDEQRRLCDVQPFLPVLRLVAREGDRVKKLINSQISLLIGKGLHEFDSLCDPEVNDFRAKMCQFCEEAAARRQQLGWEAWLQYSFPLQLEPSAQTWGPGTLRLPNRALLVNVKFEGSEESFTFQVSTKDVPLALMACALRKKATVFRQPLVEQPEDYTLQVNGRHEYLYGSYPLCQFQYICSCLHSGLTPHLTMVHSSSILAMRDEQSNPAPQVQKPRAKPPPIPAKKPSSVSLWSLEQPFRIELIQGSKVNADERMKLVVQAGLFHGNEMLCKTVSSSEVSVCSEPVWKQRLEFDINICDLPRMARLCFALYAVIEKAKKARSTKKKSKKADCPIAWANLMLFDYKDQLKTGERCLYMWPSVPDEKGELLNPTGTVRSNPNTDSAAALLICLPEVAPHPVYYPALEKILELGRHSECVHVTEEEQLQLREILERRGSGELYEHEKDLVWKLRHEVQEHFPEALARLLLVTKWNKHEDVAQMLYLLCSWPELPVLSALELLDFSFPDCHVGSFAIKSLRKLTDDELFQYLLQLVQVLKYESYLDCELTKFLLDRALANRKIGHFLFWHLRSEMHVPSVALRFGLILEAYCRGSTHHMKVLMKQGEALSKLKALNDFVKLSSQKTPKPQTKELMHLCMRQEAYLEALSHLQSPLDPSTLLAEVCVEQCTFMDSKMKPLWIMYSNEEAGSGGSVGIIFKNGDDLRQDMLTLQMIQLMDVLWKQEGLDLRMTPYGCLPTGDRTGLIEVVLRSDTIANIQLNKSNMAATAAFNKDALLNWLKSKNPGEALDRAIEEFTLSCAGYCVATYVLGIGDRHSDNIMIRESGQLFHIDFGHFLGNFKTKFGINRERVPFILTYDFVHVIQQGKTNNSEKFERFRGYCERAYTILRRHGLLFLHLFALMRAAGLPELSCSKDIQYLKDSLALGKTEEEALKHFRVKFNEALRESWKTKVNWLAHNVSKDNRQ
Sequence of PI3Kδ (p110δ/p85α) (P27986 whole entry partner): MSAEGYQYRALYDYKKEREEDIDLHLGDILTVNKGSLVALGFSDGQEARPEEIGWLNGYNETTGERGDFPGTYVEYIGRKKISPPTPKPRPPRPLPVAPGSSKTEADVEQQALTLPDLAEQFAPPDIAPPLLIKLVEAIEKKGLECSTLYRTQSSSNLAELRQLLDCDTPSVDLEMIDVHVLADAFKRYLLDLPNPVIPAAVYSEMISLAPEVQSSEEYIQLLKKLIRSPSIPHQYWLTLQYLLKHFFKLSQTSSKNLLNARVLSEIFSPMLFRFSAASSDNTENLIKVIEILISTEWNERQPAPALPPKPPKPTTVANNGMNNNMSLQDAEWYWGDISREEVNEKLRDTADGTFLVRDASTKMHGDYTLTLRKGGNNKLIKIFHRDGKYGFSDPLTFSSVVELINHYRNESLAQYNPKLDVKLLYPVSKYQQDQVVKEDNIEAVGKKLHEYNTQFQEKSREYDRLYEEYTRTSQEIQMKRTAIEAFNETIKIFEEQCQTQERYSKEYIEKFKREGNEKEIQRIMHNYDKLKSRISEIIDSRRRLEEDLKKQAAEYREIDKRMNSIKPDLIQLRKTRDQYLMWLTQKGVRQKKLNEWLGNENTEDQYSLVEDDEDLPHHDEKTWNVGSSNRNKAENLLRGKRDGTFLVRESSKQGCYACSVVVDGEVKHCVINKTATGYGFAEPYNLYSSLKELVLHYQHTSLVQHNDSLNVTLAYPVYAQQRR

Compound: CCOc1c(C(C)n2nc(C)c3c(N)ncnc32)cc(Cl)c(F)c1C1CNC(=O)O1 (single isomer, unassigned) [Example 357, 5-{3-[1-(4-amino-3-methyl-1H-pyrazolo[3,4-d]pyrimidin-1-yl)ethyl]-5-chloro-2-ethoxy-6-fluorophenyl}-1,3-oxazolidin-2-one]
- relative activity of the separated enantiomers (peaks 1-4): most active enantiomer
